The test system of one assay is BMDMs. Nature of the assay: Substrate-specific respirometry in permeabilized cells. To be noted: 3 μM etomoxir. Type of assay: cell-based, mouse.
The next assay deals with HepG2 cells. Nature of the assay: Palmitate-driven respiration in intact HepG2 cells (Seahorse). Type of assay: cell-based. On the procedure:
All respirometry studies were conducted in either a Seahorse XF96 or XFe96 Analyzer. All experiments were conducted at 37° C., and at pH 7.4 (intact cells) or 7.2 (permeabilized cells and isolated mitochondria). Calculation of respiratory parameters was made according to standard protocols (Divakaruni, A. S., Paradyse, A., Ferrick, D. A., Murphy, A. N., and Jastroch, M. (2014a) Analysis and interpretation of microplate-based oxygen consumption and pH data. Meth. Enzym 547, 509-54), and all rates were corrected for non-mitochondrial respiration/background signal by subtracting the oxygen consumption rate insensitive to rotenone plus antimycin A.
Palmitate oxidation in intact cells (FIG. 1A, FIG. 1B) was assessed by measuring palmitate-driven respiration that was sensitive to low concentrations of etomoxir (Rogers, G. W., Nadanaciva, S., Swiss, R., Divakaruni, A. S., and Will, Y. (2014) Assessment of fatty acid beta oxidation in cells and isolated mitochondria. Curr. Protoc. Toxicol. 60, 25.3, 1-19). […] Respiration was measured under basal conditions as well as after injection of 2 μM oligomycin, two sequential additions of 1 μM FCCP, followed by 0.2 μM rotenone with 1 μM antimycin A. Etomoxir was added to the assay medium 30 min. prior to measurements of basal respiratory rates.

For assay [1], the system named is M(IL-4) polarization of BMDMs. Nature of the assay: Flow cytometry of IL-4-associated cell surface markers in BMDMs. The assay is classed as cell-based, mouse. On the procedure:
For all gene expression and flow cytometry experiments described below, day 6 BMDM were plated at 3×10^5 cell/well in 12-well plates. The next day, cells were treated with appropriate compounds (and duration as indicated in figures and below) in DMEM supplemented with 5% FBS, 2 mM L-glutamine, 100 units/mL, 100 μg/mL penicillin/streptomycin, 500 μM of sodium pyruvate and 5% v/v conditioned media containing macrophage colony stimulating factor (M-CSF).
For flow cytometry experiments involving etomoxir (FIG. 1G, FIG. 2A, FIG. 2D, FIG. 3A, FIG. 3B, FIG. 3G, FIG. 3H): BMDMs were mock-treated (media replacement only) or treated with 20 ng/mL of IL-4±3 μM or 200 μM of etomoxir for 48 hr. When measuring expression of M(IL-4)-associated genes in response to etomoxir (FIG. 1H, FIG. 2B), BMDMs were mock-treated or treated with 20 ng/mL of IL4±etomoxir as indicated for 24 hr.
For experiments involving respiratory chain inhibitors: BMDMs were mock-treated (media replacement only) or treated with 20 ng/mL of IL4±1.2 μM oligomycin (Oligo), 200 nM rotenone (Rot), 200 nM antimycin A (AntiA), 100 nM piericidin A (PierA), or 5 μM carboxyatractylate (CAT) for either 24 (FIG. 4G, FIG. 4H, FIG. 6G) or 48 hr (FIG. 4F, FIG. 7D). All inhibitors were given as co-treatments simultaneously with IL-4.
For experiments involving CoA supplementation (FIG. 10A, FIG. 10B, FIG. 10C, FIG. 10D, FIG. 10E, FIG. 9C, FIG. 9D): BMDMs were mock-treated (media replacement only) or treated with 20 ng/mL of IL4±etomoxir (concentration indicated in figures)±CoA (concentration indicated in figures) for 48 hr. Etomoxir and CoA were given as co-treatments simultaneously with IL-4.
Prior to FACS analysis, BMDMs were detached using 350 μL of Accutase, followed by two washes with FACS buffer (PBS+1% (v/v) BSA+0.05% (w/v) sodium azide). Anti-mouse CD16/32 antibody was used at a dilution of 1:500, while all other antibodies were used at a dilution of 1:250. All flow cytometry data were captured using BD FACSVerse flow cytometer and analyzed using the FlowJo X 10.0.7r2 software. In all, 2×104 live events were acquired for each sample (gated on DAPIneg). For analysis, CD206+/CD71+ and CD206+/CD301+ populations were gated based on Fluorescence Minus One (FMO) controls.
For orientation: A flow cytometer gives signals particle by particle.

`CCOC(=O)[C@@]1(CCCCCCOc2ccc(Cl)cc2)CO1` [etomoxir]: the “palmitoyl CoA oxidation” value with BMDMs is “significant effect”. In the assay with BMDMs (glutamate/malate, pyruvate/malate, palmitoylcarnitine/malate, succinate/rotenone), the “respiration driven by substrates which do not require CPT-1” value is on record as “no effect”. The FCCP-stimulated respiration result in the assay on HepG2 cells (1 μM etomoxir) was “largely sensitive”. Also, in the assay with HepG2 cells (intact HepG2, albumin-buffered palmitate), the “half-maximal inhibitory concentration (EC50) for uncoupler-stimulated respiration” value is listed as “sub-micromolar”. The “CD206+/CD71+ expression in WT and Cpt1a-/- macrophages” value in assay [1] (3 μM etomoxir) is on record as “lack of an effect”; in assay [1] (200 μM etomoxir), “robust block”. Further, the “expression levels of IL-4-induced CD206, CD71, CD301” value in assay [1] (3 μM etomoxir, IL-4 20 ng/mL) was “no effect”. For the same compound, the “population of CD206+/CD71+ cells” value in assay [1] (200 μM etomoxir, IL-4) was “strongly reduced”; in assay [1] (500 μM CoA, etomoxir 3-100 μM) it was “proportionally decreased”. For the same compound, in assay [1] (200 μM etomoxir, IL-4), the “population of CD301+ cells” value is “little effect”. In assay [1] (CD206+/CD71+, IL-4), the “concentration at which significant changes in macrophage polarization were observed” value was above 100 µM.

For the origin of these results see patent US11813277B2, “Methods and agents for modulating inflammation” (The Regents of the University of California, priority 2018, dated 2023).
